In a melting point compilation (Tetko et al.; mined from patent text by program, amines drawn as free bases though some values may be those of a salt) one finds melting point data, which are given here for 89 compounds.

The structures appear in SMILES notation. Bounds are passed on as bounds.

Turning to `CC(=O)CC(=S)Nc1ccccc1`, the melting point was 125 °C.

`COc1ccc(N2CCN(Cc3n[nH]c4c(F)cccc34)CC2)cc1` registered a melting point of 178 to 179 °C.

Compound `O=C(O)Cc1ccc2c(c1)C(=O)Cc1ccccc1O2` displayed a melting point of 156 to 157 °C.

Take `CC(C)Cn1c(=O)n(C)c(=O)c2c(Sc3cccc(O)c3)n(Cc3cccc4ccccc34)cc21`: the melting point fell in the range of 150 to 151 °C.

Take `Nc1c(Cl)ncnc1Nn1ccc2ccccc21`: the melting point fell in the range of 175 to 176 °C.

`CC1Cc2ccc([N+](=O)[O-])cc2C=N1` (centres undefined): the melting point was 110 to 112 °C.

`Cc1ccnc2c1C(=O)CC(c1nccs1)C2` (centres undefined) displayed a melting point of 88 to 89 °C.

As for `COC(=O)c1ccc2c(c1)S(=O)(=O)c1ccccc1N=C2`, the melting point lay in the range of 181 to 182 °C.

Take `Cc1nc(-n2ccc(O)cc2=O)sc1C(=O)NCc1ccc(F)c(F)c1`: the melting point lay in the range of 294 to 296 °C.

Compound `COC(=O)c1cccc(F)c1S(C)(=O)=O` displayed a melting point of 116 °C.

Turning to `O=C1CCCN1c1cccc(CO)c1`, the melting point was 120 to 121 °C.

As to `O=C(Nc1ccccn1)[C@H](Cc1ccccc1)C[C@@H](Cc1ccccc1)C(=O)N[C@@H](CSCc1ccccc1)C(=O)O`, the melting point was 75 to 80 °C.

For `Nc1ccnc(N2CCC(c3ccc(S(N)(=O)=O)cc3)CC2)c1`, the melting point was in the range of 290 to 295 °C.

The compound `NC(=O)N1C(=O)C(=C(OC(=O)C=CC(=O)OCCCCc2ccccc2)c2cccs2)c2cc(F)c(Cl)cc21` yielded a melting point of 159 to 161 °C.

For `Cc1ccc(-c2cc(C(O)C#Cc3ccc(C(=O)O)cc3)cc3c2C(C)(C)CCC3(C)C)cc1` (centres undefined), the melting point stood at 180 °C.

With `CC(C)c1cccc(C(C)C)c1NC(=O)CN1CCN(CCSc2nc3cccc([N+](=O)[O-])c3o2)CC1`, the melting point lay within 153 to 155 °C.

As to `COc1ccc(I)cc1CCCO`, the melting point lay in the range of 68 to 70 °C.

The compound `Cc1ccccc1-c1c(Cl)nc2ccccc2c1Cl` returned a melting point of 78 to 80 °C.

Compound `c1ccc(Nc2nc(OCC3CCCCC3)c3[nH]cnc3n2)cc1` registered a melting point of 196 to 199 °C.

On to `O=C(O)c1ccc(COCc2csc3nc(C(=O)NCc4ccc(F)c(F)c4)[nH]c(=O)c23)cc1`, for which the melting point is 249 to 251 °C.

For `CCC(CC)N(O)C(=O)NCCCC(C)CNC(=O)N(O)C(CC)CC` (centres undefined), the melting point is 124 to 125 °C.

For the compound `Cc1sc2c(Br)c3ccccc3c(-c3cc(Br)c(O)c(C4CCCC4)c3)c2c1C`, the melting point was 190 to 191 °C.

The compound `O=C(O)c1ccccc1CCc1cccc(Br)c1` came in with a melting point of 88 to 90 °C.

Turning to `CCCCOC(=O)Cc1nc(-c2ccc(Cl)cc2)oc1-c1ccsc1`, the melting point was in the range of 79 to 81 °C.

The compound `Cc1oc(C=Cc2cccc(C(F)(F)F)c2)nc1CC#N` gave a melting point of 107 to 108 °C.

Compound `OC1CCc2c(Cl)cc(Cl)c(I)c21` (centres undefined) displayed a melting point of 95 to 100 °C.

`COC(=O)COc1cccc(CN(C)c2cnc(-c3ccccc3)c(-c3ccccc3)n2)c1` gave a melting point of 132 to 134 °C.

`Cc1cc(C)c(N2CCCCC2=S)c(Cl)c1`: the melting point is 147 to 148 °C.

The compound `CCN(CC)CCOc1ccc(NC(=O)C#Cc2cccnc2)cc1Cl` displayed a melting point of 118 to 120 °C.

Consider `COC(=O)C1=Cc2cc(-c3ccc(OC(C)C)cc3)ccc2S(=O)(=O)CC1`, for which the melting point fell in the range of 140 to 142 °C.

`CCSc1cccc2c1C(=O)c1cccc(SCC)c1C2=O` displayed a melting point of 235 to 236 °C.

`CNc1nc(Nc2ccc(Cl)c(CNS(C)(=O)=O)c2)ncc1[N+](=O)[O-]` came in with a melting point of 250 °C.

`O=C(CCl)c1ccc2c(c1)Nc1ccccc1S2` came in with a melting point of 190 to 191 °C.

For the compound `O=C(NCCO)c1ccc(CCCc2ccccc2CCc2ccccc2)cc1`, the melting point lay within 104 to 106 °C.

For the compound `CN1CCC(c2c(O)cc(O)c3c(=O)cc(-c4ccccc4Cl)oc23)C1C(=O)O` (centres undefined), the melting point fell in the range of 295 to 297 °C.

Regarding `C=C1c2ccccc2C2(CCN(C)CC2)c2cccc(O)c21`, the melting point was 117 to 120 °C.

With `O=C(O)Cc1ccc2cc(O)ccc2c1`, the melting point lay within 208 to 210 °C.

In turn, `OC(CCCn1ccnc1)c1ccccc1` (centres undefined) yielded a melting point of 205 to 207 °C.

`O=C(NCC1(c2ccccc2)CCCC1)N1CCC(Sc2ccc(CCNC[C@H](O)COc3ccc(O)cc3)cc2)CC1` gave a melting point of 132 °C.

On to `O=C(O)c1ccc(-c2nnc(-c3ccc(C(F)(F)F)cc3)o2)c([N+](=O)[O-])c1`, for which the melting point was 254 to 255 °C.

Compound `O[C@@H](CNCc1ccccc1)C1CCCCC1` gave a melting point of 56 to 58 °C.

With `Cc1oc(-c2ccccc2)nc1COc1cc(CCl)ccn1`, the melting point was in the range of 104 to 105 °C.

For `O=C(O)C=CC(=O)c1ccc(Oc2cccc(Cl)c2)cc1`, the melting point is 110 to 111 °C.

`CCOC(=O)/C=C/c1ccc(C2COc3c(C)c(C)c(NC(=O)CC(C)(C)C)c(C)c32)cc1` (centres undefined) registered a melting point of 176 to 177 °C.

`Cc1ccc2c(c1)oc1c(C(=O)NC3CCCCC3)nn(-c3ccc(Cl)cc3Cl)c12`: the melting point was in the range of 140 to 142 °C.

In turn, `Nc1cc(N2CCCC2=O)c(Cl)cc1Cl` displayed a melting point of 168 to 170 °C.

Take `COc1ccc(S(=O)(=O)Nc2cccnc2Nc2ccc(OC(=O)N(C)C)cc2)cc1`: the melting point lay in the range of 202 to 203 °C.

`CCCCCCc1cc2c(s1)-n1c(C)nnc1CN=C2c1cc(C)ccc1C` came in with a melting point of 81 to 84 °C.

The compound `CC(C)(C)OC(=O)C1=Cc2cc(OCc3ccccc3)ccc2OC1` returned a melting point of 64 to 67 °C.

The compound `CC(=O)Oc1ccc2c(c1Cl)Sc1ccccc1N2` came in with a melting point of 173 °C.

Regarding `CC(=O)OCC1OC(OCC(=O)c2cc(OCc3ccccc3)c(OCc3ccccc3)c(OCc3ccccc3)c2)C(OC(C)=O)C(OC(C)=O)C1OC(C)=O` (centres undefined), the melting point lay within 156 to 158 °C.

Consider `COc1cc(C(=O)Nc2c(Cl)cncc2Cl)cc2c1oc1ccccc12`, for which the melting point fell in the range of 165 to 166 °C.

Consider `O=C(OC1c2ccccc2C(=O)N1c1ccc2ccc(Cl)nc2n1)N1CCN(C(=O)C2CCCCC2)CC1` (centres undefined), for which the melting point is 240 °C.

On to `O=C1Cc2cc(C(=O)N3CCN(Cc4ccccc4)CC3)ccc2N1`, for which the melting point fell in the range of 151 to 153 °C.

`CCCN(C1CCC1)[C@H]1COc2c(F)ccc(C(N)=O)c2C1` displayed a melting point of 107 to 109 °C.

Compound `O=[N+]([O-])c1ccc2[nH]cc(CCCI)c2c1` showed a melting point of 95 to 98 °C.

In turn, `COc1ccc(Nc2nc(Nc3ccc(OC)c(Cl)c3)nc(OCC3CCCCC3)n2)cc1Cl` showed a melting point of 188 °C.

Compound `Cc1cn(-c2ccc(N)cc2)cn1` yielded a melting point of 122 to 125 °C.

In turn, `Brc1cccc(C2Cc3cnc(Nc4ccc(CCN5CCN(c6ccccc6)CC5)cc4)nc3-c3ccccc32)c1` (centres undefined) yielded a melting point of 113 to 115 °C.

The compound `CC=NN(C(=O)c1ccc(Cl)cc1)c1ccc(OC)c(F)c1` came in with a melting point of 97 to 99 °C.

As for `NCC(=O)Nc1ccc(Cl)cc1C(=NCCO)c1ccccc1F`, the melting point was 128 to 132 °C.

The compound `O=C(NC(=O)c1ccccc1Cl)Nc1cc(C(F)(F)F)c(Br)cc1Br` had a melting point of 191 °C.

`CO/C=C(/C(=O)OC)c1cccnc1Oc1cccc(C=O)c1` gave a melting point of 84 to 86 °C.

The compound `CCOC(=O)C=C(C)C=CC=C(C)C=Cc1c(C)cc(C)c(Cl)c1C` came in with a melting point of 84 to 85 °C.

For `CCS(=O)(=O)C(=CNc1ccc(Cl)cc1)S(=O)(=O)CC`, the melting point lay within 173 to 175 °C.

In turn, `CC(C)(C)OC(=O)N1CCC2(CC1)CC(c1ncccc1Cl)=NO2` displayed a melting point of 97 to 102 °C.

`Cc1cc2cc(CN3CCC(C(=O)N(C)C)CC3)cnc2cc1NC(=O)c1ccc(-c2ccc(F)cc2)cc1`: the melting point is 229 °C.

Compound `CC(=O)Oc1ccc2sc(S(N)(=O)=O)cc2c1` had a melting point of 129 to 132 °C.

In the case of `Cc1nc2c(cc1CO)CCCCC2`, the melting point is 79 to 80 °C.

In turn, `CCCCCCCCCCCCCCCCCCC1CNCCNCCNCCNCCN1` (centres undefined) gave a melting point of 99 to 100 °C.

`CCC(CC)Nc1nc(Cc2cc(OC)c(OC)c(OC)c2)nc2sc(C#N)c(C)c12` gave a melting point of 127 to 129 °C.

`CCCCCCCCCCCCCCCCCCOc1cc(OCCOCCOCCOCC)cc(N(CC(=O)O)CC(=O)O)c1` returned a melting point of 76 to 78 °C.

As for `CC(C)(C(=O)NCCC#N)c1ccc(C(=O)Nc2cn3cc(Cl)ccc3n2)cc1`, the melting point is 208 to 209 °C.

In the case of `N#CN1CCC2(CC1)CN(c1ccccc1F)c1ccccc12`, the melting point lay in the range of 131 to 132 °C.

The compound `N#Cc1c(N)[nH]c2c1COc1ccccc1-2` gave a melting point of 216 to 217 °C.

`COc1ccccc1C1(O)CCN(C2CCN(C(=O)c3cc(C)cc(C)c3)C(Cc3ccccc3)C2)CC1` (centres undefined) gave a melting point of 213 °C.

`NC(=O)c1ccc(-c2cccc3cc(Cc4cccc(C(F)(F)F)c4)sc23)cc1`: the melting point lay within 175 to 176 °C.

With `CN1C(=O)CC(Sc2cc(C(C)(C)C)c(O)c(C(C)(C)C)c2)C1=O` (centres undefined), the melting point turned out to be 132 °C.

Regarding `CCn1c(=O)c2[nH]c(/C=C/c3ccc(F)c(Cl)c3)nc2n(CC)c1=O`, the melting point is > 270 °C.

`CNC(=O)c1ccccc1Nc1nc(Nc2ccc3c(c2)COC[C@@H]2CCCN32)ncc1Cl` registered a melting point of 216 to 218 °C.

`CCSc1cc(O)c(C#N)s1` registered a melting point of 105 °C.

Turning to `COC(=O)c1cc(/C=N/O)ccc1[N+](=O)[O-]`, the melting point was determined as 116 °C.

`COCCOc1ccc(N)c([N+](=O)[O-])c1` returned a melting point of 89 to 90 °C.

As for `CCCCc1oc2ccccc2c1Cc1ccc(OS(=O)(=O)c2ccc(C(=O)O)c(O)c2)cc1`, the melting point lay in the range of 135 to 138 °C.

`COc1ccccc1-n1c(-c2cc(-c3ccncc3)c(N3CCOCC3)s2)nc2ccccc2c1=O`: the melting point lay within 204 to 205 °C.

With `CCOC(=O)C1CCc2ccc(NC(=O)OC(C)(C)C)c(C)c2O1` (centres undefined), the melting point lay in the range of 123 to 124 °C.

For `COc1cc(CCNC(=O)[C@@H](NS(C)(=O)=O)C(C)C)ccc1OCc1cccc2ccccc12`, the melting point lay in the range of 153 to 157 °C.

For the compound `CC1=C(c2ccccc2)C(=O)N(C(C)(C)c2cc(Cl)c(F)c(Cl)c2)CC1`, the melting point was in the range of 154 to 159 °C.

Compound `CCOC(=O)c1c(O)c2cnc(N3CCCC3)nc2n(C)c1=O` returned a melting point of 174 to 177 °C.

Usually melting point stands for the temperature, or range, at which the solid turns liquid.
